# Test results: patent US9833423B2 (KOREA RESEARCH INSTITUTE OF CHEMICAL TECHNOLOGY, priority 2011, dated 2017)
# Read-outs that look alike come from different tables or passages of the source.
# How the values were obtained:
# Coxsackie-virus B1 = experiment: Cytopathic effect (CPE) inhibition assay; type: cell-based, Coxsackievirus B1; details: Enterovirus B, HeLa37, 48 h, HeLa, 37° C., 2 days
# Coxsackie-virus B3 = experiment: Cytopathic effect (CPE) inhibition assay; type: cell-based, Coxsackievirus B3; details: Enterovirus B, HeLa37, 48 h; Table 4; HeLa, 37° C., 2 days; read-out: Coxsackie-virus B3 EC50
# in vitro = details: human
# [1] = Table 4, read-out: Coxsackie-virus B1 EC50
# [2] = Table 3, read-out: EC50 Coxsackie-virus B1
SMILES,EC50 (Coxsackie-virus B1; [1]) [µg/mL],EC50 (Coxsackie-virus B3) [µg/mL],CC50 (in vitro; Picorna-virus CC50) [µg/mL],EC50 (Coxsackie-virus B1; [2]) [µg/mL],melting point [°C],CC50 (in vitro; CC50) [µg/mL]
"CCCCCC(=O)NC1(c2ccc(C(C)C)cc2OC(=O)CCCCC)C(=O)c2ccccc2C1=O [Example 78, Hexanoic acid 2-(2-hexanoylamino-1,3-dioxo-indan-2-yl)-5-isopropyl-phenyl ester]",< 0.01,< 0.01,68.2,–,–,–
"CCCCCCC(=O)NC1(c2ccc(C(C)C)cc2OC(=O)CCCCCC)C(=O)c2cccc(N)c2C1=O (stereo not drawn) [Example 83, 2-(4-Amino-2-heptanamido-1,3-dioxo-2,3-dihydro-1H-inden-2-yl)-5-isopropylphenyl heptanoate]",< 0.01,< 0.01,> 100,–,–,–
"CCCC(=O)Oc1cc(C(C)C)ccc1C1(OC(=O)CCC)C(=O)c2ccccc2C1=O [Example 22, 2-(2-(Butyryloxy)-1,3-dioxo-2,3-dihydro-1H-inden-2-yl)-5-isopropylphenyl butyrate]",–,–,–,< 0.01,98 to 102,33.8
"CCCCC(=O)Oc1cc(C(C)C)ccc1C1(NC(C)=O)C(=O)c2ccccc2C1=O [Example 93, 2-(2-Acetamido-1,3-dioxo-2,3-dihydro-1H-inden-2-yl)-5-isopropylphenyl pentanoate]",< 0.01,< 0.01,35.2,–,–,–
"CC(=O)Oc1cc(C(C)(C)C)ccc1C1(OC(C)=O)C(=O)c2ccccc2C1=O [Example 15, 2-(2-Acetoxy-1,3-dioxo-2,3-dihydro-1H-inden-2-yl)-5-tert-butylphenyl acetate]",–,–,–,0.015,119 to 120,8.26
"CC(C)c1ccc(C2(OC(=O)c3ccccc3)C(=O)c3ccccc3C2=O)c(O)c1 [Example 23, 2-(2-Hydroxy-4-isopropylphenyl)-1,3-dioxo-2,3-dihydro-1H-inden-2-yl benzoate]",–,–,–,< 0.01,117 to 119,44.3
"CC(=O)Nc1ccc([N+](=O)[O-])c2c1C(=O)C(O)(c1cc(C)c(C)cc1NC(=O)C(C)C)C2=O (stereo not drawn) [Example 94, N-(2-(4-Acetamido-2-hydroxy-7-nitro-1,3-dioxo-2,3-dihydro-1H-inden-2-yl)-4,5-dimethylphenyl)isobutyramide]",< 0.01,< 0.01,39.2,–,–,–
"COc1cc(C(C)C)ccc1C1(NC(C)=O)C(=O)c2ccccc2C1=O [Example 54, N-(2-(4-Isopropyl-2-methoxyphenyl)-1,3-dioxo-2,3-dihydro-1H-inden-2-yl)acetamide]",–,–,–,0.0198,222 to 224,> 117
"CCC(=O)NC1(c2ccc(C(C)C)cc2OC(=O)CC)C(=O)c2cccc(N)c2C1=O (stereo not drawn) [Example 84, 2-(4-Amino-1,3-dioxo-2-propionamido-2,3-dihydro-1H-inden-2-yl)-5-isopropylphenyl propionate]",< 0.01,< 0.01,> 100,–,–,–
"CC(=O)NC1(c2ccc(C(C)C)cc2OC(=O)Oc2ccccc2)C(=O)c2ccccc2C1=O [Example 99, Carbonic acid 2-(2-acetylamino-1,3-dioxo-indan-2-yl)-5-isopropyl-phenyl ester phenyl ester]",< 0.01,< 0.01,38.1,–,–,–
"CCCC(=O)NC1(c2ccc(C(C)C)cc2OC(=O)CCC)C(=O)c2ccccc2C1=O [Example 76, Butyric acid 2-(2-butyrylamino-1,3-dioxo-indan-2-yl)-5-isopropyl-phenyl ester]",< 0.01,< 0.04,45.1,–,–,–
"CC(C)c1ccc(C2(O)C(=O)c3ccccc3C2=O)c(OC(=O)/C=C/c2ccccc2)c1 [Example 30, 2-(2-Hydroxy-1,3-dioxo-2,3-dihydro-1H-inden-2-yl)-5-isopropylphenyl cinnamate]",–,–,–,< 0.01,95 to 97,> 100
"CCC(=O)Oc1cc(C(C)C)ccc1C1(OC(=O)CC)C(=O)c2ccccc2C1=O [Example 21, 2-(1,3-Dioxo-2-(propionyloxy)-2,3-dihydro-1H-inden-2-yl)-5-isopropylphenyl propionate]",–,–,–,< 0.01,123 to 125,16
